Laboratory results reported in ChEMBL document CHEMBL5050844 (2019).

What was measured:
[1] = Induction of anti-CD3 antibodies-stimulated human CD4+ T cell activation in immunocompetent mouse assessed fold increase in CD25 expression at 180 mg/kg, po administered twice a day; format: functional; note: reference of the scale not given here
[2] = Induction of anti-CD3/CD28 antibodies-stimulated human T cell activation at 1 uM assessed fold increase in CD25 expression measured by ELISA assay; format: functional, T cell line
[3] = Induction of activation of human CD56+ CD3- NK cells co-cultured with human K562 cells in 1:1 ratio and assessed as increase in TNF-alpha secretion at 1 uM measured by ELISA assay; format: functional, Natural killer cell
[4] = Induction of anti-CD3 antibodies-stimulated human T cell activation at 1 uM assessed fold increase in CD25 expression measured by ELISA assay; format: functional, T cell line; note: reference of the scale not given here
[5] = Induction of activation of human CD56+ CD3- NK cells co-cultured with human K562 cells in 5:1 ratio and assessed as increase in IFN-gamma secretion at 1 uM measured by ELISA assay; format: functional, Natural killer cell
[6] = Induction of anti-CD3 antibodies-stimulated human T cell activation at 8 uM assessed fold increase in CD25 expression measured by ELISA assay; format: functional, T cell line; note: reference of the scale not given here
[7] = biological target: T1, E3 ubiquitin-protein ligase CBL-B (Homo sapiens, UniProt Q13191); test: Inhibition of N-terminal Avi-tagged human CBL-B (36 to 427 residues) incubated with 60 nM Src kinase for 1.5 hrs followed by incubation with fluorescently labeled UbcH5B-Ub for 1 hr and measured by TR-FRET assay; format: single protein
T1 sequence (Q13191 whole entry, the tested form may be a part): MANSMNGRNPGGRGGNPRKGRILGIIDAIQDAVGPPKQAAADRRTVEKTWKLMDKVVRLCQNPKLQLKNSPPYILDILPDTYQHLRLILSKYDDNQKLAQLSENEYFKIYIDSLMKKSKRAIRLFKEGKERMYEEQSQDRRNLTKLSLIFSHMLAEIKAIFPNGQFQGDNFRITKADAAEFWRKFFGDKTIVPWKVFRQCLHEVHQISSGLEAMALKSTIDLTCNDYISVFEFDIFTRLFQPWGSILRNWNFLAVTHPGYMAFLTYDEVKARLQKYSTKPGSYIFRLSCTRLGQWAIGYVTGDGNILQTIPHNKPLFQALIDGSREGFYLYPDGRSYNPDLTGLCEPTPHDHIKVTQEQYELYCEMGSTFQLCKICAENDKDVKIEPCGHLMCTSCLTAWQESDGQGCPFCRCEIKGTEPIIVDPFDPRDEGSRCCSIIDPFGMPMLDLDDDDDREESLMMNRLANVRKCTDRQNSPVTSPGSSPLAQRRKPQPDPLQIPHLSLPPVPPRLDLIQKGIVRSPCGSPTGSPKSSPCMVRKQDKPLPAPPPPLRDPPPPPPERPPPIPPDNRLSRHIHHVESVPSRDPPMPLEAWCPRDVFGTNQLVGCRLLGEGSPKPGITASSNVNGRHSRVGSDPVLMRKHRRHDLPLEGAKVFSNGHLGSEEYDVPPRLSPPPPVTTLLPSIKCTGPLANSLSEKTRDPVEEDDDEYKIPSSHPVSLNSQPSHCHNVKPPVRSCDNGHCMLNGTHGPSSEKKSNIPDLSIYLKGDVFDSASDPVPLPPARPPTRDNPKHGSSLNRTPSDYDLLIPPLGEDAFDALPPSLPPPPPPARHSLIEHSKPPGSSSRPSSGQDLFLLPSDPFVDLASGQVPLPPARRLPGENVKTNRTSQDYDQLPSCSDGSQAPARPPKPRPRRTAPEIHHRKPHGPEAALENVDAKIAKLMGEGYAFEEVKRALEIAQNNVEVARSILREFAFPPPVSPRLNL

[8] = Induction of activation of human CD56+ CD3- NK cells co-cultured with human K562 cells in 1:1 ratio and assessed as increase in MIP1beta secretion at 1 uM measured by ELISA assay; format: functional, Natural killer cell
[9] = Induction of anti-CD3/CD28 antibodies-stimulated human T cell activation at 0.3 uM assessed fold increase in CD25 expression measured by ELISA assay; format: functional, T cell line
[10] = Induction of activation of human CD56+ CD3- NK cells co-cultured with human K562 cells in 1:1 ratio and assessed as increase in IFN-gamma secretion at 1 uM measured by ELISA assay; format: functional, Natural killer cell
[11] = Induction of activation of human CD56+ CD3- NK cells co-cultured with human K562 cells in 5:1 ratio and assessed as increase in MIP1beta secretion at 1 uM measured by ELISA assay; format: functional, Natural killer cell
[12] = Induction of anti-CD3 antibodies-stimulated human CD8+ T cell activation in immunocompetent mouse assessed fold increase in CD25 expression at 90 mg/kg, ip administered thrice a day; format: functional; note: reference of the scale not given here
[13] = Induction of anti-CD3 antibodies-stimulated human CD4+ T cell activation in immunocompetent mouse assessed fold increase in CD25 expression at 90 mg/kg, po administered twice a day; format: functional; note: reference of the scale not given here
[14] = Induction of anti-CD3 antibodies-stimulated human CD4+ T cell activation in immunocompetent mouse assessed fold increase in CD25 expression at 135 mg/kg, po administered twice a day; format: functional; note: reference of the scale not given here
[15] = Induction of activation of human CD56+ CD3- NK cells co-cultured with human K562 cells in 5:1 ratio and assessed as increase in TNF-alpha secretion at 1 uM measured by ELISA assay; format: functional, Natural killer cell
[16] = Induction of activation of human CD56+ CD3- NK cells co-cultured with human K562 cells in 1:1 ratio and assessed as increase in IFN-gamma secretion at 10 uM measured by ELISA assay; format: functional, Natural killer cell
[17] = Induction of activation of human CD56+ CD3- NK cells co-cultured with human K562 cells in 5:1 ratio and assessed as increase in MIP1beta secretion at 10 uM measured by ELISA assay; format: functional, Natural killer cell
[18] = Induction of anti-CD3 antibodies-stimulated human CD8+ T cell activation in immunocompetent mouse assessed fold increase in CD25 expression at 180 mg/kg, po administered twice a day; format: functional; note: reference of the scale not given here
[19] = Induction of anti-CD3 antibodies-stimulated human T cell activation at 1 uM assessed fold increase in IL-2 secretion measured by ELISA assay; format: functional, T cell line; note: reference of the scale not given here
[20] = Induction of anti-CD3 antibodies-stimulated human CD8+ T cell activation in immunocompetent mouse assessed fold increase in CD25 expression at 45 mg/kg, po administered twice a day; format: functional; note: reference of the scale not given here
[21] = Induction of anti-CD3 antibodies-stimulated human CD8+ T cell activation in immunocompetent mouse assessed fold increase in CD25 expression at 135 mg/kg, po administered twice a day; format: functional; note: reference of the scale not given here
[22] = Induction of activation of human CD56+ CD3- NK cells co-cultured with human K562 cells in 5:1 ratio and assessed as increase in TNF-alpha secretion at 10 uM measured by ELISA assay; format: functional, Natural killer cell
[23] = Induction of anti-CD3/CD28 antibodies-stimulated human T cell activation at 0.3 uM assessed fold increase in IL-2 secretion measured by ELISA assay; format: functional, T cell line
[24] = Induction of activation of human CD56+ CD3- NK cells co-cultured with human K562 cells in 5:1 ratio and assessed as increase in IFN-gamma secretion at 10 uM measured by ELISA assay; format: functional, Natural killer cell
[25] = Induction of anti-CD3/CD28 antibodies-stimulated human T cell activation at 1 uM assessed fold increase in IL-2 secretion measured by ELISA assay; format: functional, T cell line
[26] = biological target: T1, E3 ubiquitin-protein ligase CBL-B; test: Binding affinity towards N-terminal biotinylated Avi-tagged human CBL-B (36 to 427 residues) measured by surface plasmon resonance assay
[27] = Induction of anti-CD3/CD28 antibodies-stimulated human T cell activation at 4 uM assessed fold increase in IL-2 secretion measured by ELISA assay; format: functional, T cell line
[28] = Induction of activation of human CD56+ CD3- NK cells co-cultured with human K562 cells in 1:1 ratio and assessed as increase in MIP1beta secretion at 10 uM measured by ELISA assay; format: functional, Natural killer cell
[29] = Induction of activation of human CD56+ CD3- NK cells co-cultured with human K562 cells in 1:1 ratio and assessed as increase in TNF-alpha secretion at 10 uM measured by ELISA assay; format: functional, Natural killer cell
[30] = Induction of anti-CD3 antibodies-stimulated human T cell activation at 8 uM assessed fold increase in IL-2 secretion measured by ELISA assay; format: functional, T cell line; note: reference of the scale not given here
[31] = Induction of anti-CD3 antibodies-stimulated human CD8+ T cell activation in immunocompetent mouse assessed fold increase in CD25 expression at 90 mg/kg, po administered twice a day; format: functional; note: reference of the scale not given here
[32] = Induction of anti-CD3/CD28 antibodies-stimulated human T cell activation at 4 uM assessed fold increase in CD25 expression measured by ELISA assay; format: functional, T cell line
[33] = Induction of anti-CD3 antibodies-stimulated human CD4+ T cell activation in immunocompetent mouse assessed fold increase in CD25 expression at 90 mg/kg, ip administered twice a day; format: functional; note: reference of the scale not given here

Row | SMILES | fold change (FC) [1] | fold change (FC) [2] | fold change (FC) [3] | fold change (FC) [4] | fold change (FC) [6] | IC50 [7] | fold change (FC) [9] | fold change (FC) [12] | fold change (FC) [13] | fold change (FC) [14] | fold change (FC) [18] | fold change (FC) [19] | fold change (FC) [20] | fold change (FC) [21] | fold change (FC) [23] | fold change (FC) [25] | fold change (FC) [27] | fold change (FC) [30] | fold change (FC) [31] | fold change (FC) [32] | further results
1 | Cn1cnnc1C(F)(F)[C@](C)(F)c1cccc(N2Cc3c(cc(CN4CC[C@H](F)C4)cc3C(F)(F)F)C2=O)c1 | 1.51 | 1.51 | 2.01 | >=1.001 | >=1.001 | < 100 nM | 1.31 | <1 | 1 | 1 | 1 | >=0.201 | <1 | 1 | 2.51 | >=7.5 | >=7.5 | >=0.201 | 1 | 1.51 | fold change (FC) [5]: >=5; fold change (FC) [8]: <=1; fold change (FC) [10]: 2.01; fold change (FC) [11]: 1.01; fold change (FC) [15]: 2.01; fold change (FC) [16]: >=5; fold change (FC) [17]: 2.01; fold change (FC) [22]: >=5; fold change (FC) [24]: >=5; Kd [26]: < 100 nM; fold change (FC) [28]: 1.01; fold change (FC) [29]: 2.01
2 | Cn1cnnc1C(F)(F)[C@](C)(F)c1cccc(N2Cc3c(cc(CN4CCC(F)(F)C4)cc3C(F)(F)F)C2=O)c1 | 1 | 1.01 | 1.01 | 0.801 | >=1.001 | < 100 nM | 1.01 | <1 | 1 | 1 | <1 | 0.101 | 1 | <1 | 1.01 | 2.51 | >=7.5 | >=0.201 | <1 | 1.31 | fold change (FC) [5]: 1.01; fold change (FC) [8]: 1.01; fold change (FC) [10]: 1.01; fold change (FC) [11]: 1.01; fold change (FC) [15]: 1.01; fold change (FC) [16]: >=5; fold change (FC) [17]: 2.01; fold change (FC) [22]: 2.01; fold change (FC) [24]: >=5; Kd [26]: < 100 nM; fold change (FC) [28]: 2.01; fold change (FC) [29]: 2.01
3 | Cn1cnnc1CC1(c2cccc(N3Cc4c(cc(CN5CC[C@@H](C#N)C5)cc4C(F)(F)F)C3=O)c2)COC1 | <1 | 1.01 | – | >=1.001 | >=1.001 | < 100 nM | 1.01 | <1 | <1 | <1 | <1 | 0.101 | <1 | <1 | 5 | >=7.5 | >=7.5 | >=0.201 | <1 | 1.31 | –
4 | C[C@@H]1CN(Cc2cc3c(c(C(F)(F)F)c2)CN(c2cccc(C4(Cc5nncn5C)COC4)c2)C3=O)CCO1 | – | 1.31 | – | >=1.001 | – | < 100 nM | 1.31 | – | – | 1.51 | – | >=0.201 | 1 | – | >=7.5 | >=7.5 | – | – | 1 | – | fold change (FC) [33]: 1
5 | C[C@@H](c1cc2c(c(C(F)(F)F)c1)CN(c1cccc(C3([C@@H](F)c4nncn4C)COC3)c1)C2=O)N1CCC2(CC2)C1 (single isomer, unassigned) | >2.5 | 1.31 | – | >=1.001 | – | < 100 nM | 1.31 | 1.51 | >2.5 | – | 1.51 | >=0.201 | 1 | 1.51 | >=7.5 | >=7.5 | – | – | – | – | fold change (FC) [33]: 1.51
